Data from patent publication US20080207632A1, “PROTEIN KINASE INHIBITORS” (SUPERGEN, INC., priority 2006, published 2008).

Columns and labels:
[1] = tested on: Granta-4 lymphoma cell line; experiment: lymphoma cell number reduction, Granta-4; assay type: cell-based; conditions: 48 hours; read-out: IC50 Values Granta-4, single agent
Experimental: (§1) New IC50 values were calculated for the second agent in an effort to determine whether or not pretreatment with one compound would increase sensitivity to the other. As set forth in the table below, compound 2-3 pretreatment led to an increased sensitivity to Taxol®, however Taxol® pretreatment appeared to be […] to compound 2-3 in this assay.

[2] = tested on: Aurora-2 kinase (Aurora-A) over Aurora-1 kinase (Aurora-B); experiment: SelectScreen kinase assay, specificity within the Aurora kinase family; assay type: biochemical; conditions: SelectScreen kinase assay system
Experimental: In order to determine the specificity of compound 2-3 within the Aurora kinase family, both Aurora-2 kinase (Aurora-A) and Aurora-1 kinase (Aurora-B) were examined for sensitivity to this molecule. These studies were performed using the SelectScreen kinase assay system (Invitrogen Corp.; Madison, Wis.) and gave rise to the results presented in FIG. 2.

[3] = tested on: HT-29 cells; experiment: hollow fiber xenograft model (MTT), HT-29; assay type: in vivo, athymic nude mice; conditions: HT-29 fibers implanted IP
Experimental: (§2) Compound 2-3 was tested against three tumor types in athymic nude mice using the hollow fiber xenograft model. After incubation and growth overnight, drug-permeable fibers containing tumor cells were surgically implanted either intraperitoneally (IP) or subcutaneously (SC) and allowed to grow for 24-hours. After treatment with compound 2-3, fibers were removed and tumor cell growth was measured using the MTT assay. A549, Panc-1 or HT-29 cells were injected into separate fibers and each mouse received a fiber containing each cell line both SC and IP totaling six fibers per mouse.

[4] = tested on: HT-29 Colorectal Xenograft; experiment: HT-29 colorectal xenograft, route of administration (Example 70); assay type: in vivo, mice; conditions: intraperitoneal ALZET osmotic pump, 25 mg/kg/day over 14 days
Experimental: This study examined the effect of route of administration on tumor growth inhibition. Tumor bearing mice were treated with compound 2-3 intraperitoneally (ALZET osmotic pumps, delivering 25 mg/kg/day over 14 days) or intravenously (80 mg/kg/d on Days 1, 4 and 7). Because of difficulty in maintaining tail vein patency, this group of mice received subsequent dose intraperitoneally on Days 10, 11, 12 and 15. Compound 2-3 delivered continuously via the osmotic pump decreased tumor growth rate to 10.75 mm^3/d, compared with vehicle-treated tumor growth rate of 28.28 mm^3/d (see FIG. 5). Treated/Control ratio was 38%. […] However, after dosing was switched to IP, this effect was lost.

[5] = tested on: Panc-1 cells; experiment: hollow fiber xenograft model (MTT), Panc-1; assay type: in vivo, athymic nude mice; conditions: Panc-1 fibers implanted SC
Experimental: as §2

[6] = tested on: Histone H3 phospho-Serine 10 in MiaPaCa-2 cells; experiment: Western Blot for Histone H3 phospho-Serine 10; assay type: cell-based; conditions: synchronized MiaPaCa-2 cells, 30 µM compound, 24 hours
Excerpt: A hallmark of Aurora-2 kinase inhibition, which distinguishes it from Aurora-1 kinase inhibition, is an increase in Histone H3 phosphorylation on Serine 10, an activity which is controlled by Aurora-1 kinase. This is in contrast to the decrease in Histone H3 phosphorylation that has been observed with Aurora-1 kinase inhibition. Compound 2-3 was examined for its effect on Histone H3 phosphorylation, in order to further verify its specificity for Aurora-2 kinsase. Briefly, MiaPaCa-2 cells were grown in 25 cm^2 flasks to approximately 40% confluency, and then synchronized with Aphidicolin and Hoechst 33342 as described above. Cell were then released and treated with 30 µM compound 2-3 in culture medium for 24 hours. Cells were then lysed, and total protein was quantified. 50 μg of total protein was electrophoresed and transferred to nitrocellulose, at which time Western Blot analysis for Histone H3 phospho-Serine 10 was performed. […] This signal quickly disappeared, as the cells began to undergo apoptosis, as discussed earlier.

[7] = tested on: Granta-22 lymphoma cell line; experiment: lymphoma cell number reduction, Granta-22; assay type: cell-based; conditions: 48 hours; read-out: IC50 Values Granta-22, single agent
Experimental: as §1

SMILES: COc1cc2[nH]c3ncnc(N4CCN(C(=S)Nc5ccc(S(=O)(=O)Nc6ccc(F)cc6)cc5)CC4)c3c2cc1OC [Compound 2-3, 4-(6,7-dimethoxy-9H-pyrimido[4,5-b]indol-4-yl)-N-(4-(N-(4-fluorophenyl)sulfamoyl)phenyl)piperazine-1-carbothioamide]
- IC50 [1]: 2.04 µM
- selectivity for Aurora-2 kinase over Aurora-1 kinase [2]: over 100 fold
- tumor cell growth in fibers ([3]; 20 mg/kg intravenous): 53.8%
- tumor cell growth in fibers ([3]; 40 mg/kg intravenous): 73.4%
- Treated/Control ratio [4]: 38%
- tumor growth rate [4]: 10.75 mm^3/d
- tumor cell growth in fibers ([5]; 20 mg/kg intravenous): 58.7 % growth
- tumor cell growth in fibers ([5]; 40 mg/kg intravenous): 60.9 % growth
- Histone H3 Serine 10 phosphorylation [6]: pronounced phosphorylation signal
- IC50 [7]: 6.67 µM
